Results taken from US20060089395A1, “Nf-kb activation inhibitors” (priority 2002, published 2006).

Tested on: NF-κ B
Assay: Inhibitory activity of NF-κ B activation, luciferase reporter assay in HepG2 under TNF-α stimulation
Format: cell-based, human
Settings: HepG2, TNF-α (40 ng/ml), 4 hours; for inhibition at 1 µg/mL / inhibition at 10 µg/mL: Homo sapiens; for Inhibitory Ratio of NF-κ B Activation(%) Drug Concentration 1 μg/mL / inhibition at 1 µg/mL: 1 μg/mL; for inhibition at 1 µg/mL: read-out: Inhibitory Ratio of NF-κ B Activation(%) Drug Concentration 1 μg/mL; for Inhibitory Ratio of NF-κ B Activation(%) Drug Concentration 10 μg/mL / inhibition at 10 µg/mL: 10 μg/mL; for inhibition at 10 µg/mL: read-out: Inhibitory Ratio of NF-κ B Activation(%) Drug Concentration 10 μg/mL
Protocol: Using a transfection reagent(Effectene; QIAGEN), the human hepatoma cell strain HepG2 was transfected with a plasmid(pNF κ B-Luc Reporter Plasmid; […]) which is integrated with an oligonucleotide having five tandem copies of NF-κ B binding sequences([…]) on a upstream region of firefly luciferase gene(Luc) according to the QIAGEN's protocol, and the cells were incubated for 6 to 24 hours. After the addition of TNF-α (40 ng/ml) in the presence or absence of a test compound, the cells were incubated for 4 hours, and intracellular luciferase activity was measured by using PicaGene LT (TOYO INK MFG Co., Ltd.) and a chemical luminescence measurement apparatus ([…]luor Plus; TECAN). The inhibitory ratio was measured as a ratio relative to the value of a luciferase activity in the absence of the test compound.

SMILES	Inhibitory Ratio of NF-κ B Activation(%) Drug Concentration 1 μg/mL [%]	Inhibitory Ratio of NF-κ B Activation(%) Drug Concentration 10 μg/mL [%]	inhibition at 1 µg/mL [%]	inhibition at 10 µg/mL [%]
O=C(Nc1cc(C(F)(F)F)ccc1N1CCCC1)c1cc(Br)ccc1O [Compound No. 97]	95.8	97.8		
O=C(Nc1cc(C(F)(F)F)ccc1N1CCOCC1)c1cc(Br)ccc1O [Compound No. 98]	81.8	86.4		
O=C(Nc1cc(C(F)(F)F)ccc1Cl)c1cc([N+](=O)[O-])ccc1O [Compound No. 99]	54.3	98.0		
Cc1ccc(O)c(C(=O)Nc2cc(C(F)(F)F)ccc2Cl)c1 [Compound No. 100]	85.6	95.1		
COc1ccc(O)c(C(=O)Nc2cc(C(F)(F)F)ccc2Cl)c1 [Compound No. 101]	17.7	82.0		
Cc1ccc(O)c(C(=O)Nc2cc(C(F)(F)F)ccc2C)c1 [Compound No. 102]	89.3	98.3		
O=C(Nc1cc(Br)cc(C(F)(F)F)c1)c1cc(Cl)ccc1O [Compound No. 104]	97.2	99.2		
COc1cc(NC(=O)c2cc(Cl)ccc2O)cc(C(F)(F)F)c1 [Compound No. 105]	94.6	97.5		
O=C(Nc1cc(C(F)(F)F)ccc1N1CCOCC1)c1cc(Cl)ccc1O [Compound No. 106]	92.3	92.1		
O=C(Nc1cc(C(F)(F)F)ccc1Br)c1cc(Cl)ccc1O [Compound No. 107]	94.9	96.2		
COC(=O)c1cc(NC(=O)c2cc(Cl)ccc2O)cc(C(F)(F)F)c1 [Compound No. 108, 5-chloro-2-hydroxy-N-[3-methoxycarbonyl-5-(trifluoromethyl)phenyl]benzamide]			41.5	88.4
O=C(Nc1cc(C(F)(F)F)ccc1Oc1ccc2ccccc2c1)c1cc(Cl)ccc1O [Compound No. 110]	96.5	98.7		
O=C(Nc1cc(C(F)(F)F)ccc1Oc1ccc(Cl)cc1Cl)c1cc(Cl)ccc1O [Compound No. 111]	96.5	99.7		
O=C(Nc1cc(C(F)(F)F)ccc1N1CCC(C(F)(F)F)CC1)c1cc(Cl)ccc1O [Compound No. 112]	96.5	95.7		
O=C(Nc1cc(C(F)(F)F)ccc1OCC(F)(F)F)c1cc(Cl)ccc1O [Compound No. 113]	90.5	96.2		
COc1ccccc1Oc1ccc(C(F)(F)F)cc1NC(=O)c1cc(Cl)ccc1O [Compound No. 114]	91.8	98.2		
Cc1cc(Oc2ccc(C(F)(F)F)cc2NC(=O)c2cc(Cl)ccc2O)cc(C)c1Cl [Compound No. 115]	90.7	98.4		
O=C(Nc1cc(C(F)(F)F)ccc1N1CCCCC1)c1cc(Cl)ccc1O [Compound No. 116]	90.0	97.3		
Cc1ccc(Oc2ccc(C(F)(F)F)cc2NC(=O)c2cc(Cl)ccc2O)cc1 [Compound No. 117]	92.8	92.6		
O=C(Nc1cc(C(F)(F)F)ccc1Oc1ccc(Cl)cc1)c1cc(Cl)ccc1O [Compound No. 118]	95.0	99.5		
O=C(Nc1cc(C(F)(F)F)ccc1Cl)c1cc(Cl)cnc1O [Compound No. 119]	85.4	86.9		
CC(=O)Oc1ccccc1C(=O)Nc1cc(Cl)cc(Cl)c1 [Compound No. 121]	92.9	95.5		
O=C(Nc1cc(Cl)ccc1Cl)c1cc(Cl)ccc1O [Compound No. 122]	95.1	96.9		

SMILES	Inhibitory Ratio of NF-κ B Activation(%) Drug Concentration 1 μg/mL [%]	Inhibitory Ratio of NF-κ B Activation(%) Drug Concentration 10 μg/mL [%]	inhibition at 1 µg/mL [%]	inhibition at 10 µg/mL [%]
O=C(Nc1cc(F)cc(F)c1)c1cc(Br)ccc1O [Compound No. 123]	91.8	96.8		
O=C(Nc1cc(Cl)cc(Cl)c1)c1cc(F)ccc1O [Compound No. 124]	94.2	97.0		
O=C(Nc1cc(Cl)cc(Cl)c1)c1cc(Br)ccc1O [Compound No. 126]	77.1	92.8		
O=C(Nc1cc(Cl)cc(Cl)c1)c1cc(I)ccc1O [Compound No. 127]	85.4	97.1		
O=C(Nc1cc(Cl)cc(Cl)c1)c1cc(Br)cc(Br)c1O [Compound No. 128]	91.4	95.1		
O=C(Nc1cc(Cl)cc(Cl)c1)c1ccc(Cl)cc1O [Compound No. 129]		71.8		
O=C(Nc1cc(Cl)cc(Cl)c1)c1cc([N+](=O)[O-])ccc1O [Compound No. 130]		70.6		
Cc1ccc(O)c(C(=O)Nc2cc(Cl)cc(Cl)c2)c1 [Compound No. 131]	49.1	88.7		
O=C(Nc1cc([N+](=O)[O-])cc([N+](=O)[O-])c1)c1cc(Br)ccc1O [Compound No. 133]	91.0	95.6		
CC(C)(C)c1ccc(C(C)(C)C)c(NC(=O)c2cc(Cl)ccc2O)c1 [Compound No. 134]	89.1	96.3		
COc1ccc(C(C)(C)C)cc1NC(=O)c1cc(Cl)ccc1OC(C)=O [Compound No. 136]	91.0	99.4		
Cc1cc(C)cc(NC(=O)c2cc(Br)ccc2O)c1 [Compound No. 137]	86.3	92.6		
CC(C)(C)c1cc(NC(=O)c2cc(Cl)ccc2O)cc(C(C)(C)C)c1 [Compound No. 138, N-{3,5-bis[(1,1-dimethyl)ethyl]phenyl}-5-chloro-2-hydroxybenzamide]			89.6	98.1
CC(=O)Oc1ccc(Cl)cc1C(=O)Nc1cc(C(C)(C)C)cc(C(C)(C)C)c1 [Compound No. 139]	90.8	94.7		
COc1ccc(-c2ccccc2)cc1NC(=O)c1cc(Cl)ccc1O [Compound No. 141]	82.4	97.9		
COc1ccc(OC)c(NC(=O)c2cc(Br)ccc2O)c1 [Compound No. 142]	32.4	95.7		
COc1cc(NC(=O)c2cc(Br)ccc2O)cc(OC)c1 [Compound No. 143]	38.3	96.8		
COC(=O)c1cc(NC(=O)c2cc(Br)ccc2O)cc(C(=O)OC)c1 [Compound No. 144, 5-bromo-2-hydroxy-N-[3,5-bis(methoxycarbonyl)phenyl]benzamide]				56.4
CC(C)(C)c1cc(NC(=O)c2cc([N+](=O)[O-])ccc2O)cc(C(C)(C)C)c1 [Compound No. 146]	91.2	98.5		
Cc1ccc(O)c(C(=O)Nc2cc(C(C)(C)C)cc(C(C)(C)C)c2)c1 [Compound No. 147]	38.9	91.0		
COc1ccc(C(C)(C)C)cc1NC(=O)c1cc(C)ccc1O [Compound No. 149]	37.4	87.1		
Cc1ccc(C(C)C)cc1NC(=O)c1cc(Cl)ccc1O [Compound No. 151]	85.8	98.2		
CCOc1ccc(OCC)c(NC(=O)c2cc(Cl)ccc2O)c1 [Compound No. 152]	35.1	95.3		
